# Data from ChEMBL document CHEMBL1140266, “(2R)-2-methylchromane-2-carboxylic acids: discovery of selective PPARalpha agonists as hypolipidemic agents” (Bioorg Med Chem Lett, 2005).
# Assays:
# in vivo [1] = settings: Sprague-Dawley, rat, po, 2 mg/kg
# [2] = target: T1, Peroxisome proliferator-activated receptor alpha (Homo sapiens, UniProt Q07869)
# T1 sequence (Q07869 whole entry): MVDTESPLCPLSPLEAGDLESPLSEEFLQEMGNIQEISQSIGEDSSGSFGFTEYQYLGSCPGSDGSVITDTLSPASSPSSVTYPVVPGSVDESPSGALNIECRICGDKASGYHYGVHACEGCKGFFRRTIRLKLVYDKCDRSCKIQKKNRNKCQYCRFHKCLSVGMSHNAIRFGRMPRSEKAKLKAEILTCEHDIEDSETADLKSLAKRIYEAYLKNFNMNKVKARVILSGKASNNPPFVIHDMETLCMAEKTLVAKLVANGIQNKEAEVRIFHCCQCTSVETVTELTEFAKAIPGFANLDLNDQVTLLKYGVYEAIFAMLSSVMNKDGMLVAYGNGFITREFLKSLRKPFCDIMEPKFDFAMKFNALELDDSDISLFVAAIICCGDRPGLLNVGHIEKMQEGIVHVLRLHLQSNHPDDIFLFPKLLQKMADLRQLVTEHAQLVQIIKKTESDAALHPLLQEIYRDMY
# Description: In vitro binding affinity against human PPARalpha
# [3] = target: T1, Peroxisome proliferator-activated receptor alpha; format: functional, cell-based, COS-1
# Description: Agonist activity against human PPARalpha in COS-1 cell Gal4 assay
# in vivo [4] = settings: Sprague-Dawley, rat, iv, 0.5 mg/kg
# in vivo [5] = settings: Sprague-Dawley, rat, iv, 0.5 mg/kg; remark: listed apart in the source
# Description: Hail-life period determined against Sprague-Dawley Rat at 0.5 mg/kg after intravenous administration; (Number of rats = 3)
# [6] = target: T2, Peroxisome proliferator-activated receptor delta (Homo sapiens, UniProt Q03181)
# T2 sequence (Q03181 whole entry): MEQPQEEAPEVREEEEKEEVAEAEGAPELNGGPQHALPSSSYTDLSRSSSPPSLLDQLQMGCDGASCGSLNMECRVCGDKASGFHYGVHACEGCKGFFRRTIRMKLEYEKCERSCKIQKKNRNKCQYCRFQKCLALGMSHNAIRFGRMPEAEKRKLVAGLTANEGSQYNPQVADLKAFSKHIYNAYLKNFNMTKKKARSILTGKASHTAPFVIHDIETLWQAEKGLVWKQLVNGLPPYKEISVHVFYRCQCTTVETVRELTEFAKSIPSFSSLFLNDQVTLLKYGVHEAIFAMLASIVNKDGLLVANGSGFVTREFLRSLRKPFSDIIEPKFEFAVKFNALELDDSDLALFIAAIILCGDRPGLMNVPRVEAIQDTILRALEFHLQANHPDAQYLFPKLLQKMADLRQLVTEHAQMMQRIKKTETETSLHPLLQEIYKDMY
# Description: In vitro binding affinity against human PPARdelta
# Cricetinae gen. sp. [7] = format: functional, Cricetulus griseus; settings: at 10 mg/kg
# Description: In vivo efficacy at 10 mpk against Hamster for cholesterol lowering effect after oral dosing; Number of animals= 9 (vehicle 0.5% methylcellulose)
# Cricetinae gen. sp. [8] = format: functional; settings: at 10 mg/kg
# Description: In vivo efficacy at 10 mpk against Hamster for triglceride lowering effect after oral dosing; Number of animals= 9 (vehicle 0.5% methylcellulose)
# Cricetinae gen. sp. [9] = format: functional, Cricetulus griseus; settings: at 10 mg/kg; remark: listed apart in the source
# Description: In vivo efficacy at 10 mpk against Hamster for triglyceride lowering effect after oral dosing; Number of animals= 9 (vehicle 0.5% methylcellulose)
# [10] = target: T1, Peroxisome proliferator-activated receptor alpha; format: functional, cell-based; settings: cos-1
# Description: Agonist activity against human PPARalpha in COS-1 cell Gal4 assay; NA= Not active (less than 20% activation at 10 uM)
# in vivo [11] = settings: beagle, dog, iv, 0.5 mg/kg
# in vivo [12] = settings: beagle, dog, po, 2 mg/kg
# Description: Bioavailability determined against adult Beagle dog at 2 mg/kg after peroral administration
# in vivo [13] = settings: beagle, dog, iv, 0.5 mg/kg; remark: listed apart in the source
# Description: Hail-life period determined against adult Beagle dog at 0.5 mg/kg after intravenous administration; (Number of rats = 3)
# in vivo [14] = settings: cercopithecidae, iv, 0.5 mg/kg
# in vivo [15] = settings: cercopithecidae, iv, 0.5 mg/kg; remark: listed apart in the source
# Description: Hail-life period determined against adult Rhesus monkey at 0.5 mg/kg after intravenous administration; (Number of rats = 3)
# in vivo [16] = settings: rhesus monkey, po, 2 mg/kg
# Description: Bioavailability determined against adult Rhesus monkey at 2 mg/kg after peroral administration
# Cricetinae gen. sp. [17] = format: functional; settings: at 100 mg/kg
# Cricetinae gen. sp. [18] = format: functional; settings: at 100 mg/kg; remark: listed apart in the source
IC50 [2] [nM],EC50 [3] [nM],IC50 [6] [nM],Structure (SMILES),also measured
15,5,> 50000,CC[C@]1(C(=O)O)CCc2ccc(OCCCOc3ccc(C4CCCCC4)cc3Cl)cc2O1,bioavailability (in vivo [1]): 57%; clearance (in vivo [4]): 8.2 mL/min/kg; half-life (in vivo [5]): 1.2 h
610,300,> 50000,CC[C@]1(C(=O)O)CCc2ccc(OCCCOc3ccc(C4CCC5(CC4)CC5)cc3Cl)cc2O1,bioavailability (in vivo [1]): 37%; clearance (in vivo [4]): 0.62 mL/min/kg; half-life (in vivo [5]): 4.5 h
48,23,> 15000,CC(C)c1ccc(OCCCOc2ccc3c(c2)O[C@@](C)(C(=O)O)CC3)c(Cl)c1,bioavailability (in vivo [1]): 54%; Efficacy (Cricetinae gen. sp. [7]): -40%; clearance (in vivo [4]): 6.8 mL/min/kg; half-life (in vivo [5]): 1.3 h; Efficacy (Cricetinae gen. sp. [8]): -18%
600,240,> 15000,C[C@]1(C(=O)O)CCc2ccc(OCCCOc3ccc(OCC4CC4)cc3Cl)cc2O1,bioavailability (in vivo [1]): 76%; Efficacy (Cricetinae gen. sp. [7]): -39%; Efficacy (Cricetinae gen. sp. [9]): -13%; clearance (in vivo [4]): 5.1 mL/min/kg; half-life (in vivo [5]): 2.9 h
240,40,7400,CC(C)Oc1ccc(OCCCOc2ccc3c(c2)O[C@@](C)(C(=O)O)CC3)c(Cl)c1,
1700,700,> 50000,CC[C@]1(C(=O)O)CCc2ccc(OCCCOc3ccc(C4CCC(C)(C)CC4)cc3Cl)cc2O1,bioavailability (in vivo [1]): 95%; clearance (in vivo [4]): 2.7 mL/min/kg; half-life (in vivo [5]): 6.8 h
1600,420,> 50000,C[C@]1(C(=O)O)CCc2ccc(OCCCOc3ccc(C4CCC5(CC4)CC5)cc3Cl)cc2O1,
66,4,> 50000,CC[C@]1(C(=O)O)CCc2ccc(OCCCOc3ccc(OCC(F)(F)F)cc3Cl)cc2O1,
28,2,> 15000,C[C@]1(C(=O)O)CCc2ccc(OCCCOc3ccc(C4CCCCC4)cc3Cl)cc2O1,
29,7,> 50000,CC[C@]1(C(=O)O)CCc2ccc(OCCCOc3ccc(CC(C)C)cc3Cl)cc2O1,
710,22,> 50000,CC[C@]1(C(=O)O)CCc2ccc(OCCCOc3ccc(C4CCOCC4)cc3Cl)cc2O1,bioavailability (in vivo [1]): 77%; clearance (in vivo [4]): 15.6 mL/min/kg; half-life (in vivo [5]): 0.9 h
16,6,7600,CC(C)Cc1ccc(OCCCOc2ccc3c(c2)O[C@@](C)(C(=O)O)CC3)c(Cl)c1,bioavailability (in vivo [1]): 87%; Efficacy (Cricetinae gen. sp. [7]): -50%; clearance (in vivo [4]): 2.6 mL/min/kg; half-life (in vivo [5]): 2.9 h; Efficacy (Cricetinae gen. sp. [8]): -29%
> 15000,,> 50000,C[C@]1(C(=O)O)CCc2ccc(OCCCOc3ccc(F)cc3Cl)cc2O1,
810,120,6900,O=C(O)C1CCc2ccc(OCCCOc3ccc(OCC(F)(F)F)cc3Cl)cc2O1 (stereo unspecified),
> 50000,,> 50000,C[C@@]1(C(=O)O)CCc2ccc(OCCCOc3ccc(OCC(F)(F)F)cc3Cl)cc2O1,EC50 [10]: Not Active
1700,1000,> 50000,CC1(C)CCC(c2ccc(OCCCOc3ccc4c(c3)O[C@@](C)(C(=O)O)CC4)c(Cl)c2)CC1,

IC50 [2] [nM],EC50 [3] [nM],IC50 [6] [nM],Structure (SMILES),also measured
390,140,> 15000,C[C@]1(C(=O)O)CCc2ccc(OCCCOc3ccc(OCC4CCC4)cc3Cl)cc2O1,
110,40,> 15000,C[C@]1(C(=O)O)CCc2ccc(OCCCOc3ccc(OCC(F)(F)F)cc3Cl)cc2O1,bioavailability (in vivo [1]): 60%; Efficacy (Cricetinae gen. sp. [7]): -60%; clearance (in vivo [11]): 5.8 mL/min/kg; Efficacy (Cricetinae gen. sp. [9]): -54%; bioavailability (in vivo [12]): 100%; half-life (in vivo [13]): 6.2 h; clearance (in vivo [14]): 5.6 mL/min/kg; half-life (in vivo [15]): 2.5 h; clearance (in vivo [4]): 5.1 mL/min/kg; half-life (in vivo [5]): 2.7 h; bioavailability (in vivo [16]): 88%
140,61,5000,C[C@]1(C(=O)O)CCc2ccc(OCCCOc3ccc(Oc4ccc(F)cc4)cc3Cl)cc2O1,
3900,,> 50000,COc1ccc(OCCCOc2ccc3c(c2)O[C@@](C)(C(=O)O)CC3)c(Cl)c1,
57,20,490,C[C@]1(C(=O)O)CCc2ccc(OCCCOc3ccc(OC(F)(F)F)cc3Cl)cc2O1,
38,24,> 15000,CC[C@]1(C(=O)O)CCc2ccc(OCCCOc3ccc(C(C)C)cc3Cl)cc2O1,
37,6,1900,CC[C@]1(C(=O)O)CCc2ccc(OCCCOc3ccc(OC(F)(F)F)cc3Cl)cc2O1,
90,36,2300,CC[C@]1(C(=O)O)CCc2ccc(OCCCOc3ccc(C(F)(F)F)cc3Cl)cc2O1,
40,9,10500,C[C@]1(C(=O)O)CCc2ccc(OCCCOc3ccc(C4CCCC4)cc3Cl)cc2O1,bioavailability (in vivo [1]): 54%; Efficacy (Cricetinae gen. sp. [7]): -40%; clearance (in vivo [4]): 6.8 mL/min/kg; half-life (in vivo [5]): 1.3 h; Efficacy (Cricetinae gen. sp. [8]): -21%
1380,220,> 15000,CCOc1ccc(OCCCOc2ccc3c(c2)O[C@@](C)(C(=O)O)CC3)c(Cl)c1,
7,4,14000,CCC(C)(C)c1ccc(OCCCOc2ccc3c(c2)O[C@@](C)(C(=O)O)CC3)c(Cl)c1,
> 15000,,> 15000,CC[C@]1(C(=O)O)CCc2ccc(OCCCOc3ccc(F)cc3Cl)cc2O1,EC50 [10]: Not Active
230,80,> 15000,CC(C)(C)c1ccc(OCCCOc2ccc3c(c2)O[C@@](C)(C(=O)O)CC3)c(Cl)c1,
400,130,4100,CC[C@]1(C(=O)O)CCc2ccc(OCCCOc3ccc(Cl)cc3Cl)cc2O1,
180,28,> 50000,CC[C@]1(C(=O)O)CCc2ccc(OCCCOc3ccc(C(C)(C)C)cc3Cl)cc2O1,
,,,CC(C)OC(=O)C(C)(C)Oc1ccc(C(=O)c2ccc(Cl)cc2)cc1 [FENOFIBRATE],Efficacy (Cricetinae gen. sp. [17]): -23%; Efficacy (Cricetinae gen. sp. [18]): -43%
